# Data as given in patent US4536335A, “Carbapenem antibiotics” (Bristol-Myers Company, priority 1983, dated 1985).
# Where two headings read alike, the source gives them in different places.
# Assays:
# [1] = Half-life in phosphate buffer solution; format: physicochemical; conditions: phosphate buffer, read-out: t1/2 (solution stability) (converted)
# Protocol: A solution of para-nitrobenzyl 3-[2-(N-methylthiomorpholinium diphenylphosphate)ethylthio]-6α-[1'-(R)-hydroxyethyl]-7-oxo-1-azabicyclo[3.2.0]hept-2-ene-2-carboxylate (1.31 g, 1.76 mmol) in 0.1 M pH 7.4 phosphate buffer (48.8 mL), tetrahydrofuran (20 mL) and diethyl ether (20 mL) was hydrogenated over 10% pd/C (1.5 g) in a Parr shaker for 1 h at 40 psi. The reaction mixture was diluted with diethyl ether (40 mL) and the phases were separated. The organic phase was washed with water (2×5 mL). The aqueous phases were combined, filtered through a #52 hardened filter paper, washed with diethyl ether (2×20 mL) and pumped under vacuum. The aqueous solution was poured on a silica gel reverse phase column and the desired carbapenem was eluted with 5% acetonitrile-water.
# To a solution of p-nitrobenzyl (5R,6S)-3-[2-(1-methylmorpholino)ethylthio]-6-[(R)-1-hydroxyethyl]-7-oxo-1-azabicyclo[3.2.0]hept-2-ene-2-carboxylate diphenylphosphate (0.360 g, 0.49 mmol) in 13 mL of phosphate buffer (0.05 M pH 7.4) was added 0.36 g of 10% palladium-on-charcoal, 20 mL of tetrahydrofuran and 20 mL of diethyl ether. This mixture was hydrogenated (Parr) at 32 psi for 1 h. The mixture was filtered through Celite and the filter pad was washed with H2 O and diethyl ether. The aqueous phase was separated and the pH was adjusted to 7.0 with additional pH 7.4 phosphate buffer. After removing residual organic solvents in vacuo the aqueous solution was applied to a C18 reverse-phase column.
# To a solution of (5R,6S)paranitrobenzyl 3-[2-(1,4-dimethyl-1-piperazinium)ethylthio]-6-[1-(R)-hydroxyethyl]-7-oxo- 1-azabicyclo[3.2.0]hept-2-ene-2-carboxylate diphenylphosphate (0.47 g, 0.623 mmol) in wet tetrahydrofuran (25 mL) was added diethyl ether (25 mL), potassium phosphate monobasic-sodium hydroxide buffer (13 mL, pH 7.22) and 10% palladium on charcoal (0.47 g). The resulting mixture was hydrogenated at 23° C. under 40 psi for 1 h. The two layers were separated and the organic layer was extracted with water (2×7 mL).
# To a cold (-10° C.) solution of (5R,6S)-3-[2 -(N-methyl-thiomorpholinium)ethylthio]-6-[1-(R)-hydroxyethyl]-7-oxo-1-azabicyclo(3.2.0)-hept-2-ene-2-carboxylate (608 mg, 1.65 mmol) in a 1:1 mixture of acetonitrile-water (9 mL) was added m-chloroperbenzoic acid (334.8 mg, 1.65 mmol) in small portion over a 1 hour period. The mixture was then diluted with water (15 mL) and washed with diethyl ether (3×15 mL).
# A mixture of (5R,6S) paranitrobenzyl 3-[2-(1,4,4-trimethyl-1-piperazinium)ethylthio]-6-[1R-hydroxyethyl]-7-oxo- 1-azabicyclo(3.2.0)hept-2-ene-2-carboxylate bischloride (0.40 g, 0.68 mmol), phosphate buffer (30 mL, 0.05M, pH 7.0), tetrahydrofuran (10 mL), ether (30 mL) and 10% palladium on charcoal (0.40 g) was hydrogenated at 23° C. under 35 psi for 1 h. The two phases were separated. The organic phase was extracted with water (10 mL).
# [2] = Blood levels in mice after intramuscular administration; format: in vivo; conditions: mouse, blood, im, 20 mg/kg, intramuscular dose of 20 mg/kg
# Description: Compounds were solubilized in 0.1 M phosphate buffer pH 7. Values are fro
# a single test; 4 mice used per compound.
# *t1/2 refers to halflife in minutes
# **AUC refers to the area under the blood concentrationtime curve
# (§1) Also shown is the urinary recovery in the mice.
# Compounds were solubilized in 0.1 M phosphate buffer, pH 7.
# Values based on a single test; 4 mice per compound.
# *T1/2 refers to halflife in minutes
# K. pneumoniae A-9664 = assay: In vitro MIC, tube dilution; format: cell-based; conditions: Klebsiella pneumoniae, A9664, tube dilution, Nutrient Broth, overnight incubation at 37° C.; additional data table
# [3] = Urinary recovery after intramuscular administration to mice; format: in vivo; conditions: mouse, urine, im, 20 mg/kg, intramuscular dose of 20 mg/kg, 0-6 hour collection, read-out: Urine Recovery
# Protocol: Compounds were solubilized in 0.1 M phosphate buffer pH 7. Values are from a single test; 4 mice per compound.
# as §1
# ***Recovery based on 0-6 hour collection
# [4] = tested on: S. aureus A-9606 (Pen-res.); assay: In vitro MIC, tube dilution; format: cell-based; conditions: Staphylococcus aureus, Nutrient Broth, overnight incubation at 37° C., additional data table, read-out: MIC S. aureus (Pen-res.) A-9606
# K. pneumoniae A20468 = assay: In vitro MIC, tube dilution; format: cell-based; conditions: Klebsiella pneumoniae, A20468, tube dilution, Nutrient Broth, overnight incubation at 37° C.; additional data table
# S. pneumoniae A-9585 = assay: In vitro MIC, tube dilution; format: cell-based; conditions: Streptococcus pneumoniae, A9585, Nutrient Broth, overnight incubation at 37° C., additional data table
# S. marcescens A20019 = assay: In vitro MIC, tube dilution; format: cell-based; conditions: Serratia marcescens, A20019, tube dilution, Nutrient Broth, overnight incubation at 37° C.; additional data table
# P. mirabilis A-9900 = assay: In vitro MIC, tube dilution; format: cell-based; conditions: Proteus mirabilis, A9900, tube dilution, Nutrient Broth, overnight incubation at 37° C.; additional data table
# E. cloacae A-9656 = assay: In vitro MIC, tube dilution; format: cell-based; conditions: Enterobacter cloacae, A9656, tube dilution, Nutrient Broth, overnight incubation at 37° C.; additional data table
# S. aureus A-9537 = assay: In vitro MIC, tube dilution; format: cell-based; conditions: Staphylococcus aureus, overnight incubation at 37° C., additional data table
# P. rettgeri A22424 = assay: In vitro MIC, tube dilution; format: cell-based; conditions: Providencia rettgeri, A22424, tube dilution, Nutrient Broth, overnight incubation at 37° C.; additional data table
# P. aeruginosa A-9843A = assay: In vitro MIC, tube dilution; format: cell-based; conditions: Pseudomonas aeruginosa, A9843A, Nutrient Broth, overnight incubation at 37° C., additional data table
# E. cloacae A-9659 = assay: In vitro MIC, tube dilution; format: cell-based; conditions: Enterobacter cloacae, A9659, tube dilution, Nutrient Broth, overnight incubation at 37° C.; additional data table
# Description: N-formimidoyl thienamycin was included as a comparison compound.
# S. faecalis A20688 = assay: In vitro MIC, tube dilution; format: cell-based; conditions: Enterococcus faecalis, A20688, tube dilution, Nutrient Broth, overnight incubation at 37° C.; additional data table
# P. vulgaris A21559 = assay: In vitro MIC, tube dilution; format: cell-based; conditions: Proteus vulgaris, A21559, tube dilution, Nutrient Broth, overnight incubation at 37° C.; additional data table
# P. aeruginosa A21213 = assay: In vitro MIC, tube dilution; format: cell-based; conditions: Pseudomonas aeruginosa, A21213, tube dilution, Nutrient Broth, overnight incubation at 37° C.; additional data table
# E. coli A20341-1 = assay: In vitro MIC, tube dilution; format: cell-based; conditions: Escherichia coli, A203411, tube dilution, Nutrient Broth, overnight incubation at 37° C.; additional data table
# P. morganii A15153 = assay: In vitro MIC, tube dilution; format: cell-based; conditions: Morganella morganii, A15153, tube dilution, Nutrient Broth, overnight incubation at 37° C.; additional data table; read-out: MIC M. morganii A15153
# E. coli A15119 = assay: In vitro MIC, tube dilution; format: cell-based; conditions: Escherichia coli, A15119, tube dilution, Nutrient Broth, overnight incubation at 37° C.; additional data table
# S. pyogenes A-9604 = assay: In vitro MIC, tube dilution; format: cell-based; conditions: Streptococcus pyogenes, A9604, tube dilution, Nutrient Broth, overnight incubation at 37° C.; additional data table
smiles,measurement,setting,value
"C[C@@H](O)[C@H]1C(=O)N2C(C(=O)O)=C(SCC[N+]3(C)CC[N+](C)(C)CC3)C[C@H]12 [Example 6, (5R,6S)-3-[2-(1,4,4-Trimethyl-1-piperazinium)-ethylthio]-6-(1R-hydroxyethyl]-7-oxo-1-azabicyclo(3.2.0)hept-2-ene-2-carboxylate chloride]",half-life,"[1]; pH 7.4, concentration of 10^-4 M in phosphate buffer pH 7.4 at 36.8° C.",9.8 h
"C[C@@H](O)[C@H]1C(=O)N2C(C(=O)[O-])=C(SCC[N+]3(C)CCOCC3)C[C@H]12 [Example 3, (5R,6S)-3-[2-(1-methylmorpholino)ethylthio]-6-[(R)-1-hydroxyethyl]-7-oxo-1-azabicyclo[3.2.0]hept-2-ene-2-carboxylate]",Cmax,[2],16200 ng/mL
same,AUC,[2]; read-out: Blood AUC,4800 ng·h/mL
same,half-life,[2]; read-out: Blood T1/2,8 min
same,MIC,K. pneumoniae A-9664,0.13 µg/mL
same,dose excreted at 6 h,[3],15 ± 3%
same,MIC,[4],0.03 µg/mL
same,MIC,K. pneumoniae A20468,0.25 µg/mL
same,MIC,S. pneumoniae A-9585,0.03 µg/mL
same,MIC,S. marcescens A20019,0.06 µg/mL
same,MIC,P. mirabilis A-9900,0.13 µg/mL
same,MIC,E. cloacae A-9656,0.5 µg/mL
same,half-life,"[1]; pH 7.4, pH 7.4, 36.8° C.",18.5 h
same,MIC,"S. aureus A-9537; A9537, 50% serum, tube dilution, read-out: MIC S. aureus-50% serum A-9537",0.13 µg/mL
same,MIC,"S. aureus A-9537; A9537, tube dilution, Nutrient Broth, read-out: MIC S. aureus A-9537",0.03 µg/mL
same,MIC,P. rettgeri A22424,0.5 µg/mL
same,MIC,P. aeruginosa A-9843A,63 µg/mL
same,MIC,E. cloacae A-9659,0.25 µg/mL
same,MIC,S. faecalis A20688,0.5 µg/mL
same,MIC,P. vulgaris A21559,0.03 µg/mL
same,MIC,P. aeruginosa A21213,8 µg/mL
same,MIC,E. coli A20341-1,0.03 µg/mL
same,MIC,P. morganii A15153,0.13 µg/mL
same,MIC,E. coli A15119,0.03 µg/mL
same,MIC,S. pyogenes A-9604,0.03 µg/mL
